The values that follow are results of earlier work, collected in patent publication US20030129629A1, “Methods and compositions for the identification, assessment, prevention, and therapy of human cancers” (Millennium Pharmaceuticals, Inc., priority 2000, published 2003).

Like-named read-outs stand apart in the source and are kept apart here.

This data set deals with 60 cancer cell lines (NCI 60 cancer cell line series). The conditions noted are these: cited from earlier work.

For `CC[C@@]1(O)C(=O)OCc2c1cc1n(c2=O)Cc2cc3c(CN(C)C)c(O)ccc3nc2-1` [Topotecan], the “−Log (GI50)” value is on record as 7.7 (CNS SF-268 CL12014); 7.9 (Leukemia CCRF-CEM(I) CL7003); 7.9 (Leukemia MOLT-4 CL7006); 7.9 (NSCLC HOP-62 CL1026); 7.4 (NSCLC NCI-H23(I) CL1001); 7.7 (NSCLC NCI-H460 CL1021).
